≈ marks a conversion by molar mass, not a printed value. Like-named read-outs stand apart in the source and are kept apart here.
Legend:
[1] = test system: Bacillus subtilis ATCC 6633; assay: In vitro antibacterial activity, two-fold agar-plate dilution method; format: cell-based; conditions: ATCC6633, HI-agar, 37° C., 20 hours
Experimental: (§1) In vitro antibacterial activity was determined by the two-fold agar-plate dilution method as described below.
(§2) One loopful of an overnight culture of each test strain in Trypticase-soy broth (10^8 viable cells per ml.) was streaked on heart infusion agar (HI-agar) containing-graded concentrations of antibiotics, and the minimal inhibitory concentration (MIC) was expressed in terms of μg/ml. after incubation at 37° C. for 20 hours.
as §2, with “containing graded” for “containing-graded”, “test compounds,” for “antibiotics,”

[2] = test system: Pseudomonas aeruginosa NCTC-10490; assay: as above; format: cell-based; conditions: NCTC10490, HI-agar, 37° C., 20 hours
Experimental: as §1
as §2, with “containing graded” for “containing-graded”, “test compounds,” for “antibiotics,”

Proteus mirabilis 525 = assay: as above; format: cell-based; conditions: HI-agar, 37° C., 20 hours
Experimental: as §1, §2

[3] = test system: Escherichia coli NIHJ JC-2; assay: as above; format: cell-based; conditions: NIHJJC2, HI-agar, 37° C., 20 hours
Experimental: as §1, §2

[4] = test system: Klebsiella pneumoniae 417; assay: as above; format: cell-based
Experimental: as §1, §2

Escherichia coli 29 [5] = assay: Protecting effect against experimental infections in mice; format: in vivo, Male ICR strain mice; conditions: s.c. one hour after challenge, one week
Experimental: (§3) Male ICR strain mice aged 4 weeks, each weighing 20-23 g were used in groups of 8 mice. The test bacteria were cultured overnight at 37° C. on HI-agar and then suspended in 2.5-5% mucin solution to obtain the suspension corresponding to each challenge cells. Mice were inoculated intraperitoneally with 0.5 ml of the suspension. A solution containing each test compounds was given subcutaneously to the mice in various dosage one hour after challenge. The ED50 values were calculated from the number of surviving mice for each dosage after one week of observation.

Escherichia coli 29 [6] = assay: MIC of strain used in the mouse infection test; format: cell-based; conditions: Escherichia coli, 29, 20 h
Experimental: as §1
as §2, with “([…])” for “(10^8 viable cells per ml.)”

Serratia marcesens 4 [7] = assay: Protecting effect against experimental infections in mice; format: in vivo, Male ICR strain mice; conditions: challenge 1.0 × 10^6 cells/mouse i.p.; s.c. one hour after challenge; one week
Experimental: as §3

Serratia marcesens 4 [8] = assay: MIC of strain used in the mouse infection test; format: cell-based; conditions: Serratia, 4, 20 h
Experimental: as §1
as §2, with “([…])” for “(10^8 viable cells per ml.)”

Escherichia coli 100 [9] = assay: Protecting effect against experimental infections in mice; format: in vivo, Male ICR strain mice; conditions: challenge 3.5 × 10^4 cells/mouse i.p.; s.c. one hour after challenge; one week
Experimental: as §3

Escherichia coli 100 [10] = assay: MIC of strain used in the mouse infection test; format: cell-based
Experimental: as §1
as §2, with “([…])” for “(10^8 viable cells per ml.)”

[11] = test system: Proteus vulgaris IAM-1025; assay: In vitro antibacterial activity, two-fold agar-plate dilution method; format: cell-based; conditions: IAM1025, HI-agar, 37° C., 20 hours
Experimental: as §1, §2
as §2, with “containing graded concentration” for “containing-graded concentrations”, “test compounds,” for “antibiotics,”, “μg/ml” for “μg/ml.”

Proteus vulgaris 1 = assay: as above; format: cell-based; conditions: HI-agar, 37° C., 20 hours
Experimental: as §1, §2

Acute toxicity in mice = format: in vivo, ICR strain mice; conditions: 2 g intravenously; 10 mice; one week observation
Experimental: The same strain mice as aforesaid protecting test against experimental infections were used in groups of 10 mice. Test compound (8) (2 g) was administered intravenously to said mice.

[12] = Klebsiella pneumoniae 417, HI-agar, 37° C., 20 hours, read-out: MIC
[13] = challenge 6 × 10^6 cells/mouse i.p.

Compound: CO/N=C(\C(=O)NC1C(=O)N2C(C(=O)O)=C(CSc3nc(C)ns3)CSC12)c1csc(N)n1 (stereo not shown) [Test Compound (3), 7-[2-Methoxyimino-2-(2-aminothiazol-4-yl)acetamido]-3-(3-methyl-1,2,4-thiadiazol-5-yl)thiomethyl-3-cephem-4-carboxylic acid]
- MIC [1]: 1.56 µg/mL (≈ 2.96 µM)

Compound: C=CCO/N=C(\C(=O)NC1C(=O)N2C(C(=O)O)=C(CSc3nnnn3CC=C)CSC12)c1csc(N)n1 (stereo not shown) [Test Compound (3), 7-[2-Allyloxyimino-2-(2-aminothiazol-4-yl)acetamido]-3-(1-allyl-1H-tetrazol-5-yl)thiomethyl-3-cephem-4-carboxylic acid]
- MIC [1]: 0.78 µg/mL (≈ 1.38 µM)
- MIC [2]: 6.25 µg/mL (≈ 11.1 µM)

Compound: CO/N=C(\C(=O)NC1C(=O)N2C(C(=O)O)=C(CSc3nncs3)CSC12)c1csc(NC=O)n1 (stereo not shown) [(10)]
- MIC (Proteus mirabilis 525): 0.39 µg/mL (≈ 0.72 µM)
- MIC [3]: 0.78 µg/mL (≈ 1.44 µM)
- MIC [4, 12]: 1.56 µg/mL (≈ 2.88 µM)

Compound: CO/N=C(\C(=O)NC1C(=O)N2C(C(=O)O)=C(CSc3nncs3)CSC12)c1csc(N)n1 (stereo not shown) [(14)]
- MIC (Proteus mirabilis 525): 0.1 µg/mL (≈ 0.195 µM)
- MIC [3]: 0.1 µg/mL (≈ 0.195 µM)
- MIC [4, 12]: 0.2 µg/mL (≈ 0.389 µM)
- ED50 (S.C.) (Escherichia coli 29 [5]; [13]): < 0.005 mg/mouse
- MIC (Escherichia coli 29 [6]; 10^6 viable cells/ml): ≤ 0.03 µg/mL
- MIC (Escherichia coli 29 [6]; 10^8 viable cells/ml): ≤ 0.03 µg/mL

Compound: Cc1nnc(SCC2=C(C(=O)O)N3C(=O)C(NC(=O)Cn4cnnn4)C3SC2)s1 (stereo not shown) [CEZ Na, reference compound]
- ED50 (S.C.) (Escherichia coli 29 [5]; challenge 5.5 × 10^5 cells/mouse i.p.): 0.182 mg/mouse
- MIC (Escherichia coli 29 [6]; 10^6 viable cells/ml): 0.78 µg/mL
- MIC (Escherichia coli 29 [6]; 10^8 viable cells/ml): 3.13 µg/mL

Compound: CC(=O)OCC1=C(C(=O)O)N2C(=O)C(NC(=O)Cc3cccs3)C2SC1 (stereo not shown) [CET, 7(2-Thienyl)acetamidocephalosporanic acid, reference compound]
- ED50 (S.C.) (Escherichia coli 29 [5]; [13]): 1.402 mg/mouse
- MIC (Escherichia coli 29 [6]; 10^6 viable cells/ml): 3.13 µg/mL
- MIC (Escherichia coli 29 [6]; 10^8 viable cells/ml): 12.5 µg/mL

Compound: CO/N=C(\C(=O)NC1C(=O)N2C(C(=O)O)=C(CO)CSC12)c1csc(N)n1 (stereo not shown) [(15)]
- MIC (Proteus mirabilis 525): 0.1 µg/mL (≈ 0.242 µM)
- MIC [3]: 0.78 µg/mL (≈ 1.89 µM)
- MIC [4, 12]: 0.05 µg/mL (≈ 0.121 µM)

Compound: CO/N=C(\C(=O)NC1C(=O)N2C(C(=O)O)=C(COC(C)=O)CSC12)c1csc(NC=O)n1 (stereo not shown) [(12)]
- MIC (Proteus mirabilis 525): 0.78 µg/mL (≈ 1.61 µM)
- MIC [3]: 1.56 µg/mL (≈ 3.23 µM)
- MIC [4, 12]: 1.56 µg/mL (≈ 3.23 µM)
- ED50 (S.C.) (Serratia marcesens 4 [7]): 0.018 mg/mouse
- MIC (Serratia marcesens 4 [8]; 10^6 viable cells/ml): 6.25 µg/mL
- MIC (Serratia marcesens 4 [8]; 10^8 viable cells/ml): 200 µg/mL

Compound: CO/N=C(/C(=O)NC1C(=O)N2C(C(=O)O)=C(COC(C)=O)CSC12)c1csc(N)n1 (stereo not shown) [(9)]
- MIC (Proteus mirabilis 525): 0.78 µg/mL (≈ 1.71 µM)
- MIC [3]: 3.13 µg/mL (≈ 6.87 µM)
- MIC ([4]; Klebsiella pneumoniae, 417, 20 h): 1.56 µg/mL (≈ 3.43 µM)

Compound: CO/N=C(\C(=O)N[C@@H]1C(=O)N2C(C(=O)O)=C(COC(N)=O)CS[C@H]12)c1ccco1 [Cefuroxime, reference compound]
- ED50 (S.C.) (Serratia marcesens 4 [7]): 4.329 mg/mouse
- ED50 (S.C.) (Escherichia coli 100 [9]): 1.158 mg/mouse
- MIC (Serratia marcesens 4 [8]; 10^6 viable cells/ml): 50 µg/mL
- MIC (Serratia marcesens 4 [8]; 10^8 viable cells/ml): 400 µg/mL
- MIC of used strain (Escherichia coli 100 [10]; 10^6 viable cells/ml): 12.5 µg/mL
- MIC (Escherichia coli 100 [10]; 20 h, 10^8 viable cells/ml): 12.5 µg/mL

Compound: CO/N=C(\C(=O)NC1C(=O)N2C(C(=O)O)=C(COC(N)=O)CSC12)c1csc(N)n1 (stereo not shown) [(13)]
- MIC (Proteus mirabilis 525): 0.025 µg/mL (≈ 0.0548 µM)
- MIC [3]: 1.56 µg/mL (≈ 3.42 µM)
- MIC [4, 12]: 0.5 µg/mL (≈ 1.1 µM)
- ED50 (S.C.) (Serratia marcesens 4 [7]): < 0.156 mg/mouse
- MIC (Serratia marcesens 4 [8]; 10^6 viable cells/ml): ≤ 0.025 µg/mL
- MIC (Serratia marcesens 4 [8]; 10^8 viable cells/ml): 25 µg/mL

Compound: CO/N=C(/C(=O)NC1C(=O)N2C(C(=O)O)=C(CSc3nnnn3C)CSC12)c1cccc(O)c1 (stereo not shown) [(3)]
- MIC (Proteus mirabilis 525): 25 µg/mL (≈ 49.5 µM)
- MIC [3]: 50 µg/mL (≈ 98.9 µM)
- MIC [4, 12]: 6.25 µg/mL (≈ 12.4 µM)

Compound: CC(C)O/N=C(\C(=O)NC1C(=O)N2C(C(=O)O)=C(COC(N)=O)CSC12)c1csc(N)n1 (stereo not shown) [(20)]
- MIC [11]: 0.2 µg/mL (≈ 0.413 µM)
- MIC (Proteus vulgaris 1): 0.2 µg/mL (≈ 0.413 µM)
- MIC [1]: 1.56 µg/mL (≈ 3.22 µM)

Compound: C=CCn1nnnc1SCC1=C(C(=O)O)N2C(=O)C(NC(=O)/C(=N\OC(C)C)c3csc(N)n3)C2SC1 (stereo not shown) [(21)]
- MIC [11]: 0.78 µg/mL (≈ 1.38 µM)
- MIC (Proteus vulgaris 1): 0.78 µg/mL (≈ 1.38 µM)
- MIC [1]: 0.78 µg/mL (≈ 1.38 µM)

Compound: CO/N=C(\C(=O)NC1C(=O)N2C(C(=O)O)=C(CSc3nnc(C)s3)CSC12)c1csc(N)n1 (stereo not shown) [(16)]
- MIC (Proteus mirabilis 525): 0.39 µg/mL (≈ 0.739 µM)
- MIC [3]: 0.39 µg/mL (≈ 0.739 µM)
- MIC [4, 12]: 0.1 µg/mL (≈ 0.19 µM)

Compound: CO/N=C(\C(=O)NC1C(=O)N2C(C(=O)O)=C(CSc3nncn3C)CSC12)c1csc(N)n1 (stereo not shown) [(17)]
- MIC (Proteus mirabilis 525): 0.39 µg/mL (≈ 0.764 µM)
- MIC [3]: 0.2 µg/mL (≈ 0.392 µM)
- MIC [4, 12]: 0.2 µg/mL (≈ 0.392 µM)

Compound: CO/N=C(\C(=O)NC1C(=O)N2C(C(=O)O)=C(COC(C)=O)CSC12)c1csc(N)n1 (stereo not shown) [(8)]
- MIC (Proteus mirabilis 525): 0.05 µg/mL (≈ 0.11 µM)
- MIC [3]: 0.1 µg/mL (≈ 0.22 µM)
- MIC [4, 12]: 0.1 µg/mL (≈ 0.22 µM)
- Acute toxicity (survival, disorder) (Acute toxicity in mice): All mice survived without showing any disorder
- ED50 (S.C.) (Escherichia coli 29 [5]; [13]): < 0.005 mg/mouse
- MIC (Escherichia coli 29 [6]; 10^6 viable cells/ml): ≤ 0.03 µg/mL
- MIC (Escherichia coli 29 [6]; 10^8 viable cells/ml): 0.2 µg/mL

Compound: CO/N=C(/C(=O)NC1C(=O)N2C(C(=O)O)=C(CSc3nnnn3C)CSC12)c1csc(N)n1 (stereo not shown) [(7)]
- MIC (Proteus mirabilis 525): 3.13 µg/mL (≈ 6.12 µM)
- MIC [3]: 12.5 µg/mL (≈ 24.4 µM)
- MIC [4, 12]: 6.25 µg/mL (≈ 12.2 µM)

Compound: C#CCO/N=C(\C(=O)NC1C(=O)N2C(C(=O)O)=C(COC(C)=O)CSC12)c1csc(N)n1 (stereo not shown) [(19)]
- MIC [11]: 0.78 µg/mL (≈ 1.63 µM)
- MIC (Proteus vulgaris 1): 0.78 µg/mL (≈ 1.63 µM)
- MIC [1]: 3.13 µg/mL (≈ 6.53 µM)

Compound: CO/N=C(\C(=O)NC1C(=O)N2C(C(=O)O)=C(COC(N)=O)CSC12)c1csc(NC(=O)C(F)(F)F)n1 (stereo not shown) [(18)]
- MIC (Proteus mirabilis 525): 0.025 µg/mL (≈ 0.0453 µM)
- MIC [3]: 3.13 µg/mL (≈ 5.67 µM)
- MIC [4, 12]: 0.05 µg/mL (≈ 0.0905 µM)

Compound: CO/N=C(/C(=O)NC1C(=O)N2C(C(=O)O)=C(CSc3nncs3)CSC12)c1csc(NC=O)n1 (stereo not shown) [(11)]
- MIC (Proteus mirabilis 525): 3.13 µg/mL (≈ 5.78 µM)
- MIC [3]: 12.5 µg/mL (≈ 23.1 µM)
- MIC [4, 12]: 3.13 µg/mL (≈ 5.78 µM)

Source: patent US4493833A, “Syn-isomer of 3,7-disubstituted-3-cephem-4-carboxylic acid compounds” (Fujisawa Pharmaceutical Co., Ltd., priority 1976, dated 1985)
